{
  "source": "ChEMBL document CHEMBL1147203",
  "about": "“Phosph(on)ate as a zinc-binding group in metalloenzyme inhibitors: X-ray crystal structure of the antiviral drug foscarnet complexed to human carbonic anhydrase I” (Bioorg Med Chem Lett, 2007)",
  "key": {"[1]": {"target": "Carbonic anhydrase 5B, mitochondrial (Homo sapiens, UniProt Q9Y2D0)", "sequence (Q9Y2D0 whole entry)": "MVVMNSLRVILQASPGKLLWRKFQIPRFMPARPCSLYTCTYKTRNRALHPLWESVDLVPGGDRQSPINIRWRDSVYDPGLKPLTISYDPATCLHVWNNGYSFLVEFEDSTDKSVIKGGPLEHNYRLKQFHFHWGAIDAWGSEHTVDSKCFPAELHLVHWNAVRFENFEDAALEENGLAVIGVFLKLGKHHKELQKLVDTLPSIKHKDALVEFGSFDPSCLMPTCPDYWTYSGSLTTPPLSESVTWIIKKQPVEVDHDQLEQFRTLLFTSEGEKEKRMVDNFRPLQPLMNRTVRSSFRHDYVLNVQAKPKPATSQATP", "experiment": "Inhibition of human recombinant CA5B by CO2 hydration assay"}, "Carbonic anhydrase 6": {"target": "Carbonic anhydrase 6 (Homo sapiens, UniProt P23280)", "sequence (P23280 whole entry)": "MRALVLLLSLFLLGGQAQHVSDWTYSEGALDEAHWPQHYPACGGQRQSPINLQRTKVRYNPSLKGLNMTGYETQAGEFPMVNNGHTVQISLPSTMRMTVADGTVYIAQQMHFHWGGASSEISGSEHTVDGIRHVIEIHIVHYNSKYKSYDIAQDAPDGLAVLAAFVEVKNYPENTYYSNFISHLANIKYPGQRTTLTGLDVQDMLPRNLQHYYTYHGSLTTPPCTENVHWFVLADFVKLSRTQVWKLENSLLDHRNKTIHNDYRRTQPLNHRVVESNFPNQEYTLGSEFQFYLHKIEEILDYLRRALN", "experiment": "Inhibition of human recombinant CA6 by CO2 hydration assay"}, "Carbonic anhydrase 7": {"target": "Carbonic anhydrase 7 (Homo sapiens, UniProt P43166)", "sequence (P43166 whole entry)": "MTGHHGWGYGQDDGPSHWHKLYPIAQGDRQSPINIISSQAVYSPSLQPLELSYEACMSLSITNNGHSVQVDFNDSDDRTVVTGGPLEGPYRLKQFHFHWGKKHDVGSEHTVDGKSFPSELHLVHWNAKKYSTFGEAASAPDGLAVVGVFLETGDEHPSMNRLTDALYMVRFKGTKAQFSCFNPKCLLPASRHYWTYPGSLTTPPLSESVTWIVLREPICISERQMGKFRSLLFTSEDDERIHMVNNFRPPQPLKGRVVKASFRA", "experiment": "Inhibition of human recombinant CA7 by CO2 hydration assay"}, "Carbonic anhydrase 12": {"target": "Carbonic anhydrase 12 (Homo sapiens, UniProt O43570)", "sequence (O43570 whole entry)": "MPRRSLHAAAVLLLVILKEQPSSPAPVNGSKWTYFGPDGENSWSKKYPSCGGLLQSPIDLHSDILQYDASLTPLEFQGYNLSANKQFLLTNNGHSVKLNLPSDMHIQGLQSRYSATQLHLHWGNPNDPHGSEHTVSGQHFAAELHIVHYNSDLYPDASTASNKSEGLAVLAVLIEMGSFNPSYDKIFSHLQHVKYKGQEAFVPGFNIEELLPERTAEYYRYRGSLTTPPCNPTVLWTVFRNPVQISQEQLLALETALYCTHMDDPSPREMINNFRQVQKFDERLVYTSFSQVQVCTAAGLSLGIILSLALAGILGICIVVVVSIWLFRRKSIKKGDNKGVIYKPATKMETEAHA", "experiment": "Inhibition of human recombinant CA12 by CO2 hydration assay"}, "Carbonic anhydrase 13": {"target": "Carbonic anhydrase 13 (Mus musculus, UniProt Q9D6N1)", "sequence (Q9D6N1 whole entry)": "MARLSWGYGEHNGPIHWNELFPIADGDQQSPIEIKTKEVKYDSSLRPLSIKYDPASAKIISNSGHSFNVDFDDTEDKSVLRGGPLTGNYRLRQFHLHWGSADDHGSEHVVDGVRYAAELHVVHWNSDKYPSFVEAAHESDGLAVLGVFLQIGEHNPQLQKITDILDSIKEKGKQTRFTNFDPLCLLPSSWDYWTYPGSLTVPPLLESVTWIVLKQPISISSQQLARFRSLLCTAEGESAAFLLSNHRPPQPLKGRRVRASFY", "experiment": "Inhibition of mouse recombinant CA13 by CO2 hydration assay"}, "Carbonic anhydrase 14": {"target": "Carbonic anhydrase 14 (Homo sapiens, UniProt Q9ULX7)", "sequence (Q9ULX7 whole entry)": "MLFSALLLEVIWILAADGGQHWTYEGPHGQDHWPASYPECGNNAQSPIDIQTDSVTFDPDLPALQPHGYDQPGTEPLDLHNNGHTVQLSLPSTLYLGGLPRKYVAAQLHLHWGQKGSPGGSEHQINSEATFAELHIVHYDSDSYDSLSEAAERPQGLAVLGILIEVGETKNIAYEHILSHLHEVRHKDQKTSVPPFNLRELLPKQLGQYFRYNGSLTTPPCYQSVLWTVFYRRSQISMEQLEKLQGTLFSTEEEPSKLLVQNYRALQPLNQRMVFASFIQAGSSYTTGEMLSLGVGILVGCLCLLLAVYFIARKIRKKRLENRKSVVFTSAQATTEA", "experiment": "Inhibition of human recombinant CA14 by CO2 hydration assay"}},
  "data": [
    {"smiles": "O=C(O)P(=O)(O)O", "note": "[FOSCARNET SODIUM]", "values": [
      {"measurement": "Ki", "setting": "[1]", "value": 11800, "unit": "µM"},
      {"measurement": "Ki", "setting": "Carbonic anhydrase 6", "value": 1810, "unit": "µM"},
      {"measurement": "Ki", "setting": "Carbonic anhydrase 7", "value": 560, "unit": "µM"},
      {"measurement": "Ki", "setting": "Carbonic anhydrase 12", "value": 1290, "unit": "µM"},
      {"measurement": "Ki", "setting": "Carbonic anhydrase 13", "value": 870, "unit": "µM"},
      {"measurement": "Ki", "setting": "Carbonic anhydrase 14", "value": 3600, "unit": "µM"}
    ]}
  ]
}
